Where two headings read alike, the source gives them in different places.
Tested on: S2− InsP3R-1
Test: CCh concentration-response of Ca2+ release in Dt-40 3ko cells expressing m3R and S2− InsP3R-1 constructs
Type: cell-based, rat
Conditions: for maximum peak Δ response to CCh: Fura-2 340/380 ratio; for fold change from WT (CCh EC50): S2 − InsP3R-1 constructs, Table 2; for EC50: fit of normalized initial peak, read-out: EC50 for CCh-induced Ca^2+ release
Excerpt: The rat S2^+ InsP3R-1 in the expression plasmid pIRES-GFP was digested with the restriction endonuclease SalI. The overhang created by digestion was blunted by using T4 polymerase. An EcoRI linker was then ligated onto the blunted ends of the construct. The entire receptor DNA was excised from the plasmid using EcoRI and ligated into the plasmid MXT-1. The region containing the S2^− splice variant and potential PKA phosphorylation sites was excised from its backbone in pCDNA 3.1+ by RsrII and KasI and ligated into the InsP3R construct in MXT-1. The potential PKA phosphorylation sites Ser-1589 and Ser-1755 were mutated, individually in both splice variants and together in the S2^− splice variant, to alanines or glutamates by using sequential PCR mutagenesis. The outside primers used for the mutagenesis reaction flanked the restriction sites RsrII and KasI. Following mutation, the resulting fragments were cut with RsrII and KasI and inserted into the InsP3R-1 backbone at the corresponding sites. The mutations were confirmed by Big Dye fluorescent sequencing. Mutated receptor DNAs were excised from MXT-1 by using EcoRI and ligated into the mammalian expression vector pGW (provided by Dr. David Yue, Johns Hopkins University). Orientation was confirmed by using restriction enzyme digestion. Mutants were named based on the splice variant, either S2+ or S2− followed by the amino acid present at position 1589 and 1755. Thus, a mutation in S2^+ InsP3R-1 S1755E is designated, “S2+SE,” and in InsP3R-1 […] S1755A is designated “S2^−SA”. Similarly, an S2− InsP3R-1 with mutations in both S1589E and S1755E is designated “S2−EE”. The numbering of residues is based on the full-length rat InsP3R-1.
Dt-40 cells lacking all three InSP3 receptor subtypes were transfected by using electroporation at 350 V and 950 microfarads (4-mm gap cuvette). 2×10^7 cells were co-transfected with 25 μg of the InsP3R-1 cDNA, 25 μof the muscarinic type 3 (m3R) receptor DNA, and 4 μg of the red fluorescent protein plasmid pHcRed1-N1 (Clontech). Cells were incubated with DNA in 500 μl of Opti-MEM media (Invitrogen) on ice for 10 min. The cell/DNA mixture was electroporated, incubated on ice for 30 min, increased to 5 ml with Opti-MEM, and placed in a 5% CO2 incubator at 39° C. for 5 h. The cells were then centrifuged and resuspended in 12 ml of complete RPMI media (Invitrogen). Transfection efficiency was typically ˜20%. Experiments were performed within 32 h of transfection.
Transfected Dt-40 3ko cells were washed once in a HEPES-buffered physiological saline solution (HEPES-PSS) containing (in mM) 5.5 glucose, 137 NaCl, 0.56 MgCl2, 4.7 KCl, 1 Na2HPO4, 10 HEPES (pH 7.4), 1.2 CaCl2, and 1% w/v bovine serum albumin. Cells were then resuspended in bovine serum albumin HEPES-PSS with 1 μM Fura-2 (AM), placed on a 15-mm glass coverslip in a low volume perfusion chamber, and allowed to adhere for 30 min at room temperature. Cells were perfused continuously for 10 min with HEPES-PSS before experimentation to allow complete Fura-2 de-esterification. A field of cells for each experiment was chosen that contained a wide range of transfection efficiency based upon the intensity of red fluorescence emitted when excited at 560 nm. Individual cells that had emission gray levels between 1500 and 2500 were subsequently chosen to standardize expression levels. [Ca^2+]i imaging was performed essentially as described previously by using an inverted epifluorescence Nikon microscope with a 40× oil immersion objective lens (numerical aperture, 1.3) (100). Cells were excited alternately with light at 340 and 380±10 nm bandpass filters (Chroma, Rockingham, Vt.) using a monochrometer (TILL Photonics, Pleasanton, Calif.). Fluorescence images were captured and digitized with a digital camera driven by TILL Photonics software. Images were captured every 2 s with an exposure of 2 ms and 4 by 4 binning. 340/380 ratio images were calculated online and stored immediately to a hard disk. […]

[1] = listed as S1589E/S1755E mutant InsP3R-1

Row | Substance | fold change from WT (CCh EC50) [fold] | maximal response in full CCh concentration-response curve | sensitivity of CCh-induced Ca^2+ release relative to other constructs | maximum peak Δ response to CCh | EC50 [nM] | fold more sensitive than nonphosphorylatable S1589A/S1755A S2− InsP3R-1 (listed as S2− mutant) [fold] | fold more sensitive than wild type S2− InsP3R-1 (CCh-induced Ca^2+ release) (listed as S2− mutant) [fold] | fold more sensitive than nonphosphorylatable S1589A/S1755A S2− InsP3R-1 [1] | fold more sensitive than wild type S2− InsP3R-1 (CCh-induced Ca^2+ release) [1] | sensitivity of CCh-induced Ca^2+ release relative to other constructs [1] | fold more sensitive than wild type S2− InsP3R-1 (CCh-induced Ca^2+ release) [fold]
1 | G1690A: InsP3R-1 S2− variant with glycine to alanine substitution at position 1690 (nucleotide binding site mutant) | – | comparable to that seen in the wild-type receptor | – | – | – | – | – | – | – | – | –
2 | S2−SE: phosphomimetic short splice variant of S1755E | 2.4 | – | intermediate sensitivity | 0.78±0.1 ratio units | 13.5 ± 1 | – | – | – | – | – | ~3

The next lines start with results.

Row | fold change from WT (CCh EC50) [fold] | Substance | maximal response in full CCh concentration-response curve | sensitivity of CCh-induced Ca^2+ release relative to other constructs | maximum peak Δ response to CCh | EC50 [nM] | fold more sensitive than nonphosphorylatable S1589A/S1755A S2− InsP3R-1 (listed as S2− mutant) [fold] | fold more sensitive than wild type S2− InsP3R-1 (CCh-induced Ca^2+ release) (listed as S2− mutant) [fold] | fold more sensitive than nonphosphorylatable S1589A/S1755A S2− InsP3R-1 [1] | fold more sensitive than wild type S2− InsP3R-1 (CCh-induced Ca^2+ release) [1] | sensitivity of CCh-induced Ca^2+ release relative to other constructs [1] | fold more sensitive than wild type S2− InsP3R-1 (CCh-induced Ca^2+ release) [fold]
3 | 7.6 | S2−EE: phosphomimetic S1589E/S1755E mutant of the short splice variant | – | greatest | 1.13+0.1 ratio units | 4.3 | ~50 | 7.5 | approximately 35 fold | approximately 7.5 fold | markedly potentiated Ca^2+ release | –
4 | 2.6 | S2−ES: phosphomimetic short splice variant S1589E | – | intermediate sensitivity | 0.54±0.1 ratio units | 12.4 ± 0.5 | – | – | – | – | – | ~3
5 | 1 | S2−WT: wild-type rat type-1 InsP3 receptor, peripheral short S2− splice variant (SEQ ID NO: 17) | – | – | 0.9±0.1 ratio units | 32.6 ± 7.5 | – | – | – | – | – | –
